Results from article PMC4669708 (Cell Death & Disease, 2015).

Tests used:
TCP1 = TCP1 (Homo sapiens, UniProt P17987); test: c-ponatinib pulldown LC-MS/MS; type: binding
Experimental: (§1) Drug-affinity matrices were prepared as described previously.[51] In brief, 25 nmol of c-ponatinib were immobilized on 50 μl NHS-activated Sepharose 4 Fast Flow beads (GE Healthcare Bio-Sciences AB, Uppsala, Sweden). 10 mg whole cell lysate was used as protein input per replicate. Affinity chromatography and elution were performed in duplicate. After elution, the enriched proteins were reduced with dithiothreitol (DTT) and cysteine residues were alkylated by incubation with iodoacetamide. The samples were digested with modified porcine trypsin (Promega). Five percent of the digested eluates were purified and concentrated by C18 reversed-phase material. Subsequently, samples were analyzed in duplicates by gel-free one-dimensional LCMS.
(§2) Precursor and MS/MS peaks were extracted from the RAW files and saved in the MGF format using msconvert tool (ProteoWizard Library v2.1.2708, www.proteowizard.sourceforge.net) for subsequent protein identification. An initial database search was performed with broader mass tolerance and conservative score threshold to re-calibrate the mass lists for optimal final protein identification. For the initial protein database search, Mascot (www.matrixscience.com, v2.3.02) was used. Error tolerances on the precursor and fragment ions were ±10 p.p.m. and ±0.6 Da, respectively, and the database search limited to fully-tryptic peptides with maximum one missed cleavage, carbamidomethyl cysteine and methionine oxidation set as fixed and variable modifications, respectively. The Mascot peptide ion score threshold was set to 30, and at least three peptide identifications per protein were required. Searches were performed against the human UniProtKB/SwissProt database (www.uniprot.org release 2013.01) including all protein isoforms. The initial peptide identifications were used to deduce independent linear transformations for precursor and fragment masses that would minimize the mean square deviation of measured masses from theoretical. Re-calibrated mass list files were searched against the same human protein database by a combination of Mascot and Phenyx (GeneBio SA, Geneva, Switzerland; version 2.5.14) search engines using narrower mass tolerances (±4 p.p.m. and ±0.3 Da). One missed tryptic cleavage site was allowed. Carbamidomethyl cysteine was set as a fixed modification and oxidized methionine was set as a variable modification. To validate the proteins, Mascot and Phenyx output files were processed by internally developed parsers. Proteins with ≥2 unique peptides above a score T1, or with a single peptide above a score T2 were selected as unambiguous identifications. Additional peptides for these validated proteins with score >T3 were also accepted. For Mascot searches, the following thresholds were used: T1=14, T2=40 and T3=10; Phenyx thresholds were set to 4.2, 4.75 and 3.5, respectively (P-value<10^−3). The validated proteins retrieved by the two algorithms were merged, any spectral conflicts discarded and grouped according to shared peptides. A false discovery rate of <1% for protein identifications and <0.1% for peptides (including the ones exported with lower scores) was determined by applying the same procedure against a database of reversed protein sequences. […] In addition to Mascot protein scores that were proposed as an estimate of protein abundance by the original algorithm, the modified version also included Phenyx protein scores and spectral counts. The algorithm first estimated three measure-specific P-values for each putative interaction, and, in contrast to,[69] P-value calculation utilized the quantiles of the measurements rather than the original data. The Fisher's method was used to combine the three resulting P-values into a single P-value for drug–protein interaction specificity. We have also correlated interaction P-values with the magnitude of competition effect represented by the fold reduction of spectral counts on free compound competition. […]

STK10 = STK10 (Homo sapiens, UniProt O94804); test: c-ponatinib pulldown LC-MS/MS; type: binding
Experimental: as §1, §2

[1] = test system: FADD-deficient Jurkat cells; test: TNF-α-induced necroptosis, cell viability (CellTiter Glo); type: cell-based, human; conditions: 10 ng/ml TNF-α overnight
Experimental: (§3) Cells were seeded in 12-, 24- or 96-well plates at proper cell density. For necroptosis or apoptosis assays, cells were incubated with the indicated compound combinations at concentrations stated for 14–24 h. Smac mimetic and z-VAD-FMK were added 30–60 min before treatment with TNF-α, FasL or TRAIL. Cell viability was determined using CellTiter Glo Luminescent Cell Viability Assay (Promega, Fitchburg, WI, USA) according to the manufacturer's instructions. Luminescence was recorded with a SpectraMax M5Multimode plate reader (Molecular Devices, Sunnyvale, CA, USA). For flow cytometry-based determination of viability, cells were harvested, collected by centrifugation, washed once and resuspended in staining buffer (1 × PBS, 10% FBS). Cells were incubated with 0.5 μg/ml PI for 10 min at room temperature (RT) in the dark. Flow cytometric analyses were performed on an LSR Fortessa (BD Biosciences) and analyzed with FlowJo software version 7.6.3 (Tree Star Inc, Ashland, OR, USA). Cell size was evaluated by forward scatter. PI-negative normal-sized cells were considered living and data were normalized to values of untreated controls.
The compounds were transferred into drug plates by acoustic droplet ejection using an Echo 520 liquid handler (LABCYTE, Sunnyvale, CA, USA). Necroptosis was induced in FADD-deficient Jurkat cells by addition of 10 ng/ml TNF-α immediately before seeding onto drug plates at a density of 1x10^4 cells/well. After 16 h incubation, cell viability was determined using CellTiter Glo Luminescent Cell Viability Assay according to manufacturer's instructions. Data analysis was performed by calculating a percentage of control to normalize for variability across different plates. The signal for the negative control DMSO wells was set to 0%, whereas the wells containing the positive control Nec-1 were put to 100% for each plate individually.

[2] = test system: FADD-deficient Jurkat cells; test: Drug toxicity, cell viability without TNF-α; type: cell-based; conditions: Homo sapiens, 24 h, no TNF-α, CellTiter Glo
Experimental: as §3, with “controls. For detection of apoptosis, cells were resuspended in Annexin V Binding Buffer (BioLegend, San Diego, CA, USA) and stained with 0.5 μg/ml PI and Alexa Fluor 647 Annexin V (BioLegend) according to manufacturer's instructions.” for “controls.”

Chain of STK10 (O94804 whole entry): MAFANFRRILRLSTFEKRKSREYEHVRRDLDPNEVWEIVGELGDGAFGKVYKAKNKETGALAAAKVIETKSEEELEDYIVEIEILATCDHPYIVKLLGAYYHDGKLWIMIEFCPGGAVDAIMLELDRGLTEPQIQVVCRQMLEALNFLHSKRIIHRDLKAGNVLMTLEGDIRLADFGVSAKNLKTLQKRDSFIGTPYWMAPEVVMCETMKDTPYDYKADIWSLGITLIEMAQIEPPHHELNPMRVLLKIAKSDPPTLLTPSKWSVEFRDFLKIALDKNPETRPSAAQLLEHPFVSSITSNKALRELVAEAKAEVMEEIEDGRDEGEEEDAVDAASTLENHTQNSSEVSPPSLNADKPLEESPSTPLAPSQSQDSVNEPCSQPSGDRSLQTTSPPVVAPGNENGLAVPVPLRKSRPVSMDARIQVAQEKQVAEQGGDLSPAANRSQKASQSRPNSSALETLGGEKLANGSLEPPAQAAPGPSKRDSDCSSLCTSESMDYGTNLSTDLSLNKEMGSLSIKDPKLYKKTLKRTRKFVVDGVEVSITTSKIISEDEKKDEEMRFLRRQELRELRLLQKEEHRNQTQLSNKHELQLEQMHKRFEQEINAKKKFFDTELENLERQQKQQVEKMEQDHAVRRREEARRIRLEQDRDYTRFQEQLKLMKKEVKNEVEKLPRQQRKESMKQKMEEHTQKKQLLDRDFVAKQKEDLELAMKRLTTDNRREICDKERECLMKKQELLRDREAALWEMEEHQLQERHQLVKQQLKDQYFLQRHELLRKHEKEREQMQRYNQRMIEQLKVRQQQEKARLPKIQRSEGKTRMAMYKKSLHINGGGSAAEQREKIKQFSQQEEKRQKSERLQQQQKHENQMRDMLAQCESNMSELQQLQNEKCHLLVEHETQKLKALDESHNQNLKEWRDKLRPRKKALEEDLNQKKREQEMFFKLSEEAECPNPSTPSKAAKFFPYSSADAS
Chain of TCP1 (P17987 whole entry): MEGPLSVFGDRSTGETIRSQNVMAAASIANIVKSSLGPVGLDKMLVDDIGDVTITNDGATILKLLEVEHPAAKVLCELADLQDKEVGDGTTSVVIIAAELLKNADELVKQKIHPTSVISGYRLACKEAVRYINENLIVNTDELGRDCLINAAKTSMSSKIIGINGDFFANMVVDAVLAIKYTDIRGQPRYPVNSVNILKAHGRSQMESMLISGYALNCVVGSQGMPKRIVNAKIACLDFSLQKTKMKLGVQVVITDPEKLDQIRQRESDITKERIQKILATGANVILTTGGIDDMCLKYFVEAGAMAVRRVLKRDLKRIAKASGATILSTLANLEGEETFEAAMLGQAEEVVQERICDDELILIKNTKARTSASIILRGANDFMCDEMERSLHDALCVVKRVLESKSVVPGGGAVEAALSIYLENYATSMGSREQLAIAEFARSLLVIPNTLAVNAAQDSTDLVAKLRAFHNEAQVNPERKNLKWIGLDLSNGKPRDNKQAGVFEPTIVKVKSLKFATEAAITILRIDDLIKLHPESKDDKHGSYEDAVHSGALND

| Av. SC comp. (TCP1; + free ponatinib) | Total SC comp. (TCP1; + free ponatinib) | Av. SC (TCP1; no competitor) | Total SC (TCP1; no competitor) | Av. SC comp. (STK10; + free ponatinib) | Total SC comp. (STK10; + free ponatinib) | Av. SC (STK10; no competitor) | Total SC (STK10; no competitor) | Compound | block of necroptosis compared with ponatinib ([1]; Figure 3b) | rescue of cell viability in drug screen ([1]; 0.5 and 1.5 μM) | EC50 ([1]; Homo sapiens, Jurkat, CellTiter Glo, read-out: EC50 for inhibiting necroptosis) | IC50 [2] |
| --- | --- | --- | --- | --- | --- | --- | --- | --- | --- | --- | --- | --- |
| 1.5 | 6 | 5 | 20 | 0 | 0 | 5.5 | 22 | Cc1ccc(C(=O)Nc2ccc(CN3CCN(CCCN)CC3)c(C(F)(F)F)c2)cc1C#Cc1cnc2cccnn12 [c-ponatinib] | blocked necroptosis with only a minor reduction in potency |  |  |  |
|  |  |  |  |  |  |  |  | Cc1ccc(C(=O)Nc2ccc(CN3CCN(C)CC3)c(C(F)(F)F)c2)cc1C#Cc1cnc2cccnn12 [ponatinib, Ponatinib] |  | robustly rescued cell viability at both concentrations | 89 nM | 1600 nM |
